Consider two compounds from US6903124B2, “Organic acid salt of amlodipine” (CJ Corp, priority 2002, dated 2005).

Each structure is given as a SMILES string.

Type in all cases: physicochemical
Data set [1] is described as follows: Chemical stability in aqueous state, 25° C., 4 weeks in complete darkness, HPLC. To be noted: distilled water. As for the experimental part:
(§1) HPLC Analysis Conditions: • Detector: UV Absorbance (at 237 nm) • Column: Octadesyl silica gel C18 (4.6 mm×150 mm, 5 μm) • Mobile Phase: Potassium dihydrogenphosphate monobasic (0.03M): methanol=4:6 (v/v) • Flow Rate: 1.5 ml/min
The resulting aqueous solutions were stored at 25° C. for 4 weeks in complete darkness, after which a measurement was made of the contents of the salts with resort to HPLC under the same conditions as in the solid state.

The nature of data set [2]: Chemical stability in solid state, accelerated test at 60° C., HPLC content. As for the experimental part:
as §1

Data set [3] is described as follows: Test for hygroscopicity: water content (K. F. water %) at 25° C. under various humidity conditions. To be noted: for water content (K. F. water %): 25° C.
Another data set in a line: physchem. Particulars: 37 °C.

Regarding `CCOC(=O)C1=C(COCCN)NC(C)=C(C(=O)OC)C1c1ccccc1Cl.CCS(=O)(=O)O` (stereo not drawn) [Ethanesulfonate, amlodipine ethanesulfonate], in data set [1], the “stability in aqueous state (decomposition products, content change)” value is “neither decomposition products nor content change is found”. For the same compound, the “change in content, accelerated test” value in data set [2] was “virtually no changes”. Also, the HPLC content is listed as 99.6% in data set [2] (1 week), 99.6% in data set [2] (2 weeks), 99.5% in data set [2] (3 weeks) and 99.7% in data set [2] (initial). For the same compound, the “water content (K. F. water %)” value was found to be 0.08% in data set [3] (25% RH, 1 week storage); 0.09% in data set [3] (60% RH, 1 week storage); 0.13% in data set [3] (75% RH, 1 week storage); 0.15% in data set [3] (95% RH, 1 week storage); 0.12% in data set [3] (Initial). Besides, in data set [3] (relative humidity 95%), the hygroscopicity is recorded as at most 0.5%. Moreover, the solubility was above 200 mg/mL in the data set “physchem” (pH 2, aqueous buffer); above 200 mg/mL in “physchem” (pH 4, aqueous buffer); above 200 mg/mL in the data set “physchem” (pH 6, aqueous buffer); above 200 mg/mL in “physchem” (pH 7, aqueous buffer); above 200 mg/mL in “physchem” (pH 7.4, aqueous buffer); above 200 mg/mL in the data set “physchem” (pH 8, aqueous buffer). The solubility in “physchem” (water) was above 200 mg/mL.
On to `CCOC(=O)C1=C(COCCN)NC(C)=C(C(=O)OC)C1c1ccccc1Cl` (stereo not drawn) [Besylate, amlodipine besylate, reference compound], for which the “stability in aqueous state (decomposition products, content change)” value in data set [1] was “neither decomposition products nor content change is found”. In addition, the “change in content, accelerated test” value in data set [2] is “virtually no changes”. For the same compound, the HPLC content in data set [2] (1 week) stood at 99.6%; in data set [2] (2 weeks), 99.4%; in data set [2] (3 weeks) it was 99.2%; in data set [2] (initial), 99.6%. Also, the “water content (K. F. water %)” value in data set [3] (25% RH, 1 week storage) stood at 0.10%; in data set [3] (60% RH, 1 week storage), 0.09%; in data set [3] (75% RH, 1 week storage), 0.15%; in data set [3] (95% RH, 1 week storage) it was 0.17%; in data set [3] (Initial), 0.14%.
